# Where “and” joins values, the source holds several entries; their conditions need not be identical. Equal values may be shown once.
# Experiments:
# KCC3 [1] = test: 86Rb+ uptake assay for KCC3 activity in HEK-293 cells; format: cell-based, human; design: key to 86Rb+ uptake: 86Rb+ uptake CPM normalized per mg protein (10-min uptake); details: for 86Rb+ uptake: replicates
# Description: ^86Rb^+ flux assays have been utilized extensively as a reliable measurement of cation chloride cotransporter activity[51]–[54].
# (§1) Thirty-six hours post transfection, cells were exposed for 30 min to either control isotonic conditions or hypotonic low [Cl^−] conditions (to activate the SPAK/OSR1 pathway), and then treated for an additional 30 min in the same conditions with the indicated ZT-1a concentrations in the presence of 1 mM ouabain and 0.1 mM bumetanide. Ten-minute ^86Rb^+ uptake values were quantified by scintillation counting, normalized per mg protein for each condition, and plotted for both isotonic and hypotonic conditions. ***p < 0.001; **p < 0.01; *p < 0.05; ns—nonsignificant [by one-way ANOVA with post hoc testing (n = 6, error bars represent the mean ± SEM)]. b ^86Rb^+ uptake assays in the presence of ZT-1a measure transport activity of NKCC1. […] Thirty-six hours post transfection, cells were exposed for 30 min to either control isotonic conditions or hypotonic low [Cl^−] conditions (to activate the SPAK/OSR1 pathway), and then treated in the same conditions for an additional 30 min with 10 µM ZT-1a or 0.1 mM bumetanide (Bum) in the presence of 1 mM ouabain (Na^+/K^+-ATPase inhibitor). ^86Rb^+ uptake was allowed to proceed for 10 min and was then quantified by scintillation counting. ^86Rb^+ uptake CPMs were normalized per mg protein and plotted for both isotonic and hypotonic conditions. […] Thirty-six hours post transfection, cells were exposed for 30 min to either control isotonic conditions or hypotonic low [Cl^−] conditions (to activate the SPAK/OSR1 pathway), and then treated for an additional 30 min in the same conditions with the indicated ZT-1a concentrations in the presence of 1 mM ouabain. Ten-minute ^86Rb^+ uptake values were quantified by scintillation counting, normalized per mg protein for each condition, and plotted for both isotonic and hypotonic conditions. ***p < 0.001; **p < 0.01; *p < 0.05; ns—nonsignificant [by one-way ANOVA with post hoc testing (n = 6, error bars represent the mean ± SEM)].
# (§2) This stimulating medium was then removed and replaced with isotonic medium containing inhibitors plus 2 µCi/ml ^86Rb^+. After incubation for 10 min at 37 °C, cells were rapidly washed three times with the respective ice-cold nonradioactive medium. Washed cells were lysed in 300 µl of ice-cold lysis buffer and ^86Rb^+ uptake was quantitated by liquid scintillation counting (PerkinElmer).
# HEK-293 cells = test: 86Rb+ uptake assay in empty-vector-transfected HEK-293 cells; format: cell-based, human; design: key: 86Rb+ uptake in CPM per mg protein; details: Empty V + 1a (10 µM), replicates
# Description: as §1, §2
# pJNK = test: Immunoblot of phospho-JNK in ischemic mouse brain; format: in vivo
# Text: Cytosol and crude membrane protein
# Expressions of Na+-K+ ATPase
# respectively. d Densitometric analyses of immunoblots.
# KCC3 [2] = test: Immunoblot of total KCC3 / Actin in HEK-293 cells transfected with FLAG-KCC3; format: cell-based, human; details: Fig S4b
# [3] = design: method as in Reviewer #3; details: as stated by Reviewer #3 in the peer-review file; ref Reviewer #3; cited from earlier work
# tSPAK tOSR1 = test: Immunoblot of total SPAK/OSR1 in ischemic mouse brain membrane and cytosol fractions; format: in vivo; details: Cytosol; IL; single samples
# [4] = system: mouse primary cortical neurons; test: Cell volume measurement (calcein-AM) under hyperosmotic stress, primary cortical neurons
structure (smiles),measurement,setting,value
"Cc1cc(C(C#N)c2ccc(Cl)cc2)c(Cl)cc1NC(=O)c1cc(Cl)ccc1O (centres unmarked) [ZT-1a, 5-chloro-N-(5-chloro-4-((4-chlorophenyl)(cyano)methyl)-2-methylphenyl)-2-hydroxybenzamide]",activation of WT KCC3 (KCC) activity,"KCC3 [1]; 86Rb+ flux, 10 µM ZT-1a, HEK-293",> 10.6 fold and > 10 fold
same,86Rb+ uptake,"KCC3 [1]; Fig 3a right, KCC3 wt, ZT-1a 1 uM, Hypotonic low Cl-",1990.9 and 1707.8 and 2071.9 and 2501.3 and 2188.7 and 2073.1
same,86Rb+ uptake,"KCC3 [1]; Fig 3a right, KCC3 wt, ZT-1a 1 uM, Isotonic control",3241.3 and 3419.1 and 2873.4 and 3612.8 and 2913.5 and 2519.3
same,86Rb+ uptake,"KCC3 [1]; Fig 3a right, KCC3 wt, ZT-1a 3 uM, Hypotonic low Cl-",4012.2 and 3271.9 and 4514.8 and 3888.6 and 3729.3 and 3910.5
same,86Rb+ uptake,"KCC3 [1]; Fig 3a right, KCC3 wt, ZT-1a 3 uM, Isotonic control",6755.1 and 6519.9 and 7018.4 and 6691.3 and 7512.7 and 6011.7
same,86Rb+ uptake,"KCC3 [1]; Fig 3a right, KCC3 wt, ZT-1a 10 uM, Hypotonic low Cl-",11981.4 and 10921.3 and 12650.2 and 11037.8 and 12144.8 and 9615.1
same,86Rb+ uptake,"KCC3 [1]; Fig 3a right, KCC3 wt, ZT-1a 10 uM, Isotonic control",17537.1 and 16129.4 and 18002.7 and 19588.5 and 17991.3 and 15002.2
same,86Rb+ uptake,"KCC3 [1]; Fig 3a, KCC3 wt + 1a (10 µM), Hypotonic low Cl-",12251.1 and 13980.5 and 10874.7 and 11830.4 and 14081.1 and 11229.7
same,86Rb+ uptake,"KCC3 [1]; Fig 3a, KCC3 wt + 1a (10 µM), Isotonic control",17623.6 and 19014.4 and 18719.8 and 19961.7 and 18001.8 and 17951.6
same,86Rb+ uptake,"HEK-293 cells; Fig 3a, Hypotonic low Cl-, ouabain + bumetanide",508.8 and 600.6 and 529.6 and 455.1 and 564.1 and 478.5
same,86Rb+ uptake,"HEK-293 cells; Fig 3a, Isotonic control, ouabain + bumetanide",1279.7 and 1082.2 and 1111.5 and 1436.1 and 1321.4 and 1109.8
same,86Rb+ uptake,"HEK-293 cells; Fig 3b, Hypotonic low Cl-, ouabain",1181.7 and 899.6 and 1029.4 and 1120.4 and 1269.1 and 946.3
same,86Rb+ uptake,"HEK-293 cells; Fig 3b, Isotonic control, ouabain",905.2 and 735.8 and 874.1 and 801.5 and 957.4 and 886.4
same,pJNK/GAPDH (fold veh-CL),"pJNK; Cytosol, CL, Fig S4d",1.00 fold veh-CL and 1.48 fold veh-CL and 0.87 fold veh-CL and 0.76 fold veh-CL
same,pJNK/Na K pump (fold veh-CL),"pJNK; Membrane, IL, Fig S4d",2.05 fold veh-CL and 1.64 fold veh-CL and 1.81 fold veh-CL and 1.40 fold veh-CL
same,p-JNK in ischemic brains,pJNK; ZT-1a 5.0 mg/kg,no marked inhibition
same,KCC3 / Actin,KCC3 [2]; ZT-1a 0.3 uM,2.04 and 1.923 and 2.091 and 1.84
same,KCC3 / Actin,KCC3 [2]; ZT-1a 1 uM,1.85 and 1.949 and 1.921 and 1.782
same,KCC3 / Actin,KCC3 [2]; ZT-1a 3 uM,1.87 and 1.905 and 1.972 and 1.73
same,logP,[3],> 6
same,tSPAK tOSR1/GAPDH (fold veh-CL),tSPAK tOSR1,1.10 fold veh-CL and 1.64 fold veh-CL and 1.23 fold veh-CL and 1.65 fold veh-CL and 0.87 fold veh-CL
same,Cell water (relative change),"[4]; Fig 5b trace, Time 1.00403",1.0915 relative change
same,Cell water (relative change),"[4]; Fig 5b trace, Time 2.00427",1.001 relative change
same,Cell water (relative change),"[4]; Fig 5b trace, Time 3.00425",0.9646 relative change
same,Cell water (relative change),"[4]; Fig 5b trace, Time 4.00423",0.9689 relative change
same,Cell water (relative change),"[4]; Fig 5b trace, Time 5.0042",0.9837 relative change
same,Cell water (relative change),"[4]; Fig 5b trace, Time 6.00445",0.7025 relative change
same,Cell water (relative change),"[4]; Fig 5b trace, Time 7.00442",0.636 relative change
same,Cell water (relative change),"[4]; Fig 5b trace, Time 8.00435",0.6336 relative change
same,Cell water (relative change),"[4]; Fig 5b trace, Time 9.00452",0.5971 relative change
same,Cell water (relative change),"[4]; Fig 5b trace, Time 10.0046",0.5748 relative change
same,Cell water (relative change),"[4]; Fig 5b trace, Time 11.0045",0.5229 relative change
same,Cell water (relative change),"[4]; Fig 5b trace, Time 12.0045",0.4882 relative change
same,Cell water (relative change),"[4]; Fig 5b trace, Time 13.0045",0.4496 relative change
same,Cell water (relative change),"[4]; Fig 5b trace, Time 14.0045",0.4313 relative change
same,Cell water (relative change),"[4]; Fig 5b trace, Time 15.0047",0.4596 relative change
same,Cell water (relative change),"[4]; Fig 5b trace, Time 16.0047",0.433 relative change
same,Cell water (relative change),"[4]; Fig 5b trace, Time 17.0047",0.4137 relative change
same,Cell water (relative change),"[4]; Fig 5b trace, Time 18.0047",0.4143 relative change
same,Cell water (relative change),"[4]; Fig 5b trace, Time 19.0049",0.386 relative change
same,Cell water (relative change),"[4]; Fig 5b trace, Time 20.0049",0.3846 relative change
same,Cell water (relative change),"[4]; Fig 5b trace, Time 21.0048",0.3598 relative change
same,Cell water (relative change),"[4]; Fig 5b trace, Time 22.0048",0.3067 relative change
same,Cell water (relative change),"[4]; Fig 5b trace, Time 23.005",0.3082 relative change
same,Cell water (relative change),"[4]; Fig 5b trace, Time 24.0048",0.3082 relative change
same,Cell water (relative change),"[4]; Fig 5b trace, Time 25.005",0.2995 relative change
same,Cell water (relative change),"[4]; Fig 5b trace, Time 26.0053",0.543 relative change
same,Cell water (relative change),"[4]; Fig 5b trace, Time 27.005",0.6295 relative change
same,Cell water (relative change),"[4]; Fig 5b trace, Time 28.005",0.7317 relative change
same,Cell water (relative change),"[4]; Fig 5b trace, Time 29.0051",0.8403 relative change
same,Cell water (relative change),"[4]; Fig 5b trace, Time 30.005",0.9491 relative change
same,Cell water (relative change),"[4]; Fig 5b trace, Time 31.005",1.001 relative change
same,Cell water (relative change),"[4]; Fig 5b trace, Time 32.005",1.095 relative change
same,Cell water (relative change),"[4]; Fig 5b trace, Time 33.0052",1.18 relative change
same,Cell water (relative change),"[4]; Fig 5b trace, Time 34.0052",1.2174 relative change
same,Cell water (relative change),"[4]; Fig 5b trace, Time 35.0052",1.246 relative change
same,Cell water (relative change),[4]; Time 1.0036,0.9411
same,Cell water (relative change),[4]; Time 2.0038,0.9678
same,Cell water (relative change),[4]; Time 3.0038,0.9873
same,Cell water (relative change),[4]; Time 4.0037,1.0365
same,Cell water (relative change),[4]; Time 5.0037,1.0673
same,Cell water (relative change),[4]; Time 6.0037,0.3755
same,Cell water (relative change),[4]; Time 7.0039,0.3590
same,Cell water (relative change),[4]; Time 8.0040,0.3612
same,Cell water (relative change),[4]; Time 9.0042,0.3419
same,Cell water (relative change),[4]; Time 10.0039,0.3164
same,Cell water (relative change),[4]; Time 11.0039,0.3660
same,Cell water (relative change),[4]; Time 12.0039,0.3218
same,Cell water (relative change),[4]; Time 13.0041,0.3220
same,Cell water (relative change),[4]; Time 14.0041,0.3646
same,Cell water (relative change),[4]; Time 15.0040,0.4243
same,Cell water (relative change),[4]; Time 16.0040,0.3424
same,Cell water (relative change),[4]; Time 17.0040,0.4003
same,Cell water (relative change),[4]; Time 18.0045,0.3516
same,Cell water (relative change),[4]; Time 19.0042,0.3431
same,Cell water (relative change),[4]; Time 20.0042,0.3283
same,Cell water (relative change),[4]; Time 21.0042,0.3207
same,Cell water (relative change),[4]; Time 22.0041,0.3314
same,Cell water (relative change),[4]; Time 23.0044,0.2994
same,Cell water (relative change),[4]; Time 24.0044,0.3371
same,Cell water (relative change),[4]; Time 25.0043,0.3486
same,Cell water (relative change),[4]; Time 26.0043,0.4588
same,Cell water (relative change),[4]; Time 27.0043,0.5973
same,Cell water (relative change),[4]; Time 28.0045,0.7262
same,Cell water (relative change),[4]; Time 29.0044,0.8045
same,Cell water (relative change),[4]; Time 30.0044,0.9325
same,Cell water (relative change),[4]; Time 31.0046,1.0105
same,Cell water (relative change),[4]; Time 32.0046,1.1112
same,Cell water (relative change),[4]; Time 33.0046,1.1274
same,Cell water (relative change),[4]; Time 34.0045,1.2089
same,Cell water (relative change),[4]; Time 35.0045,1.2137
same,regulatory volume increase (RVI) response of primary cortical neurons,"[4]; hyperosmotic stress 370 mOsm, ZT-1a 3 μM, BMT 10 μM",no RVI response
same,cell shrinkage of primary cortical neurons,"[4]; hypertonic 370 mOsm/kg H2O, earlier manuscript version quoted in peer-review file",87%
same,initial rate of cell shrinkage,"[4]; hypertonic stress, earlier manuscript version quoted in peer-review file",29 ± 9 % vol/min
same,neurons exhibiting RVI / cells analysed,"[4]; hypertonicity-mediated osmotic shrinkage, three cultures",0/49
